Measured values reported in patent publication US20060111381A1, “Amidine compounds” (priority 2002, published 2006).
“And” between values parts separate entries of the source, which are not always exact repeats. Equal entries are not always repeated.

Assays:
human δ-opiate receptor = target: T1, human δ-opiate receptor (Homo sapiens, UniProt P41143); assay: In vitro opiate receptor radioligand binding assay (MDS 260110); conditions: test compound 10 μM, read-out: Percentage Inhibition of Radioligand Binding
T1 construct: purchased MDS Pharma Services 260110
Protocol: (§1) To characterise the target specificity of the compounds, KRS-6-41, KRS-6-48 and KRS-6-51 were tested at a concentration of 10 μM for their ability to inhibit the binding of a radioligand to human δ-, κ-, or μ-opiate receptors in vitro using commercially available assays (MDS Pharma Services; assay catalogue numbers 260110, 260210 and 260410 respectively).

human μ-opiate receptor = target: T2, human μ-opiate receptor (Homo sapiens, UniProt P35372); assay: In vitro opiate receptor radioligand binding assay (MDS 260410); conditions: test compound 10 μM, read-out: Percentage Inhibition of Radioligand Binding
T2 construct: purchased MDS Pharma Services 260410
Protocol: as §1

ICR mice [1] = assay: Phenylquinone-induced writhing model in mice (writhes counted in following 5-10 minute period); type: in vivo; conditions: for No. of Writhings, Individual: individual mice; for % Inhibition: relative to vehicle group
Protocol: (§2) Testing on compound KRS-6-48 was carried out under contract by MDS Services—Taiwan Ltd. KRS-6-48 was evaluated for possible analgesic activity in the phenylquinone-induced writhing model in mice (Siegmund et al, 1957). A serial 2-fold dosage variance was used in the test, from 128 mg/kg to 1 mg/kg (8 doses in total). Groups of 3 male or female ICR mice weighing 22±2 g were employed. Variant doses (1, 2, 4, 8, 16, 32, 64 and 128 mg/kg) of test substances were administered intraperitoneally (IP). A vehicle of 2% Tween 80 in 0.9% NaCl was used for the intraperitoneal injection. The control group received vehicle alone. […] A reduction in the number of writhes by 50 percent or more (≧50%) relative to the vehicle-treated group indicated possible analgesic activity.
Testing on compounds KRS-6-41, KRS-6-51, and KRS-6-71 was also carried out under contract by MDS Services—Taiwan Ltd. The study was designed to evaluate the effects of the compounds as analgesics in the phenylquinone-induced writhing assay described in detail in Example 10 (Siegmund et al, 1957).
as §2, with “In each case, a” for “Testing on compound KRS-6-48 was carried out under contract by MDS Services—Taiwan Ltd. KRS-6-48 was evaluated for possible analgesic activity in the phenylquinone-induced writhing model in mice (Siegmund et al, 1957). A”

ICR mice [2] = assay: Deaths and adverse signs observed in writhing-study mice; type: in vivo
Protocol: as §2
as §2, with “In each case, a” for “Testing on compound KRS-6-48 was carried out under contract by MDS Services—Taiwan Ltd. KRS-6-48 was evaluated for possible analgesic activity in the phenylquinone-induced writhing model in mice (Siegmund et al, 1957). A”

human κ-opiate receptor = target: T3, human κ-opiate receptor (Homo sapiens, UniProt P41145); assay: In vitro opiate receptor radioligand binding assay (MDS 260210); conditions: test compound 10 μM, read-out: Percentage Inhibition of Radioligand Binding
T3 construct: purchased MDS Pharma Services 260210
Protocol: as §1

ICR mice [3] = assay: Straub tail behaviour (indicator of CNS activity) in writhing-study mice
ICR mice [4] = assay: Phenylquinone-induced writhing model in mice, KRS-6-98 study (writhes counted in following 10-15 minute period); type: in vivo; conditions: for Number of Writhings, Average / Number of Writhings, Individual / % Inhibition: 10-15 minute period; for Number of Writhings, Individual: individual mice; for % Inhibition: relative to vehicle group
Protocol: Testing of compound KRS-6-98 was carried out under contract by MDS Pharma Services—Taiwan. The study was essentially the same as that set out in Examples 12 and 13, and was designed to evaluate the effect of the compound as an analgesic in the phenylquinone-induced writhing assay described in detail in Example 10 (Siegmund et al, 1957).
A serial two-fold dosage variance was used in the test, from 128 mg/kg to 1 mg/kg (8 doses in total). Twenty six groups of 3 male or female ICR mice weighing 22±2 g were employed. The variant doses of the test substance were administered intraperitoneally (IP). A vehicle of 2% Tween 80 in 0.9% NaCl was used for the intraperitoneal injection. The control group received the vehicle alone. […] A reduction of the number of writhes by 50% or more (≧50%) relative to the vehicle-treated group indicate a possible analgesic activity.

T1 sequence (P41143 whole entry): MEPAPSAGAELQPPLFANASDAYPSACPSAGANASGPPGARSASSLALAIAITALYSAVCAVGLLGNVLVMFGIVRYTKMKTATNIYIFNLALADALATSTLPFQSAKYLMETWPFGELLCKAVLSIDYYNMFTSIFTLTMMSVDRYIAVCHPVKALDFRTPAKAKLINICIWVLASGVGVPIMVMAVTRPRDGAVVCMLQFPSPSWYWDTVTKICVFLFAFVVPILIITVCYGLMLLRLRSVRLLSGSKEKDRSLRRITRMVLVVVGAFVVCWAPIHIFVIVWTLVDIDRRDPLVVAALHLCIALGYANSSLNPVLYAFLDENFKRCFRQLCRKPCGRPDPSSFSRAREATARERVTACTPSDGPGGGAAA
T3 sequence (P41145 whole entry): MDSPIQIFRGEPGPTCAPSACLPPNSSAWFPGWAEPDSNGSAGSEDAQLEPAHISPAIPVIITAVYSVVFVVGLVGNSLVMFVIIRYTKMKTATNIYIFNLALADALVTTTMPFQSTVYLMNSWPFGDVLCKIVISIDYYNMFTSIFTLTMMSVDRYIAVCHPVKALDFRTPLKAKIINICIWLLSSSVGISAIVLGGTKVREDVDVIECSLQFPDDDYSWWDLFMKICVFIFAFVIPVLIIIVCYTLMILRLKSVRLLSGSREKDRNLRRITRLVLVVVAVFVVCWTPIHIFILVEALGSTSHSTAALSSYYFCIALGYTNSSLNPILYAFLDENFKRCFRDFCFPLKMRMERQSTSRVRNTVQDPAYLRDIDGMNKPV
T2 sequence (P35372 whole entry): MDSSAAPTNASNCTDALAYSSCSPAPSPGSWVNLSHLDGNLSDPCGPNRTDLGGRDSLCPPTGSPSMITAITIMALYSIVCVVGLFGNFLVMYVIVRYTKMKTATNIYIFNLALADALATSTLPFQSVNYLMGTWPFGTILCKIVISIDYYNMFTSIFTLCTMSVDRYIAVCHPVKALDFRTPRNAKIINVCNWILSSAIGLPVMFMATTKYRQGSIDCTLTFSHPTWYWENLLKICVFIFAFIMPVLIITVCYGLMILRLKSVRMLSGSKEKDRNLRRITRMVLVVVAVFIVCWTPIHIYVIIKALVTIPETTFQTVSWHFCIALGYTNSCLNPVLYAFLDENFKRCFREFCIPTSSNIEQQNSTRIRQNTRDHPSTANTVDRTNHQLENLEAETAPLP

CC(=N)NCCCN1CC[C@]23c4c5ccc(O)c4O[C@H]2[C@@H](O)C=CC3[C@H]1C5 (stereo partly drawn) [KRS-6-41, (5α,6α)-7,8-didehydro-4,5-epoxy-17-(3-acetamidinopropyl)morphinan, 3,6-diol]
inhibition at 10 µM (human δ-opiate receptor): 68% | inhibition at 10 µM (human μ-opiate receptor): 97% | No. of Writhings, Average (ICR mice [1]; 1 mg/kg IP): 14 | No. of Writhings, Individual (ICR mice [1]; 1 mg/kg IP): 12 and 15 and 14 | % Inhibition (ICR mice [1]; 1 mg/kg IP): 0% | No. of Writhings, Average (ICR mice [1]; 2 mg/kg IP): 14 | No. of Writhings, Individual (ICR mice [1]; 2 mg/kg IP): 14 and 6 and 22 | % Inhibition (ICR mice [1]; 2 mg/kg IP): 0% | No. of Writhings, Average (ICR mice [1]; 4 mg/kg IP): 12 | No. of Writhings, Individual (ICR mice [1]; 4 mg/kg IP): 14 and 8 and 15 | % Inhibition (ICR mice [1]; 4 mg/kg IP): 8% | No. of Writhings, Average (ICR mice [1]; 8 mg/kg IP): 10 | No. of Writhings, Individual (ICR mice [1]; 8 mg/kg IP): 6 and 10 and 14 | % Inhibition (ICR mice [1]; 8 mg/kg IP): 23% | No. of Writhings, Average (ICR mice [1]; 16 mg/kg IP): 9 | No. of Writhings, Individual (ICR mice [1]; 16 mg/kg IP): 5 and 16 and 6 | % Inhibition (ICR mice [1]; 16 mg/kg IP): 31% | No. of Writhings, Average (ICR mice [1]; 32 mg/kg IP): 8 | No. of Writhings, Individual (ICR mice [1]; 32 mg/kg IP): 4 and 10 and 11 | % Inhibition (ICR mice [1]; 32 mg/kg IP): 38% | No. of Writhings, Individual (ICR mice [1]; 64 mg/kg IP): 4 and 14 and died | No. of Writhings, Individual (ICR mice [1]; 128 mg/kg IP): died | inhibition of writhing (in words) (ICR mice [1]; at doses of 32, 16, 8 and 4 mg/kg IP): a moderate level of inhibition of writhing | test animals died (ICR mice [2]; 64 mg/kg IP): 1 of 3 | test animals died (ICR mice [2]; 128 mg/kg IP): 3 of 3 | inhibition at 10 µM (human κ-opiate receptor): 58% | Straub tail behaviour (ICR mice [3]; any doses (1 to 128 mg/kg IP)): None exhibited Straub tail behaviour

CN1CC[C@]23c4c5ccc(O)c4O[C@H]2[C@@H](O)C=C[C@H]3[C@H]1C5 [Morphine, reference compound]
No. of Writhings, Average (ICR mice [1]; 3 mg/kg IP): 0 | No. of Writhings, Individual (ICR mice [1]; 3 mg/kg IP): 0 | % Inhibition (ICR mice [1]; 3 mg/kg IP): 100% | test animals exhibiting Straub tail phenomenon (ICR mice [3]; 3 mg/kg IP): 2 of 3

CCC(=Nc1ccc(F)cc1)NCCCN1CC[C@]23c4c5ccc(O)c4O[C@H]2[C@@H](O)C=C[C@H]3[C@H]1C5 [KRS-6-98]
Number of Writhings, Average (ICR mice [4]; 1 mg/kg IP): 10 | Number of Writhings, Individual (ICR mice [4]; 1 mg/kg IP): 12 and 10 and 8 | % Inhibition (ICR mice [4]; 1 mg/kg IP): 44% | Number of Writhings, Average (ICR mice [4]; 2 mg/kg IP): 7 | Number of Writhings, Individual (ICR mice [4]; 2 mg/kg IP): 7 (2×) and 6 | % Inhibition (ICR mice [4]; 2 mg/kg IP): 61% | Number of Writhings, Average (ICR mice [4]; 4 mg/kg IP): 7 | Number of Writhings, Individual (ICR mice [4]; 4 mg/kg IP): 10 and 7 and 4 | % Inhibition (ICR mice [4]; 4 mg/kg IP): 61% | Number of Writhings, Average (ICR mice [4]; 8 mg/kg IP): 5 | Number of Writhings, Individual (ICR mice [4]; 8 mg/kg IP): 6 and 7 and 2 | % Inhibition (ICR mice [4]; 8 mg/kg IP): 72% | Number of Writhings, Average (ICR mice [4]; 16 mg/kg IP): 4 | Number of Writhings, Individual (ICR mice [4]; 16 mg/kg IP): 3 and 6 and 4 | % Inhibition (ICR mice [4]; 16 mg/kg IP): 78% | Number of Writhings, Average (ICR mice [4]; 32 mg/kg IP): 0 | Number of Writhings, Individual (ICR mice [4]; 32 mg/kg IP): 0 | % Inhibition (ICR mice [4]; 32 mg/kg IP): 100% | Number of Writhings, Average (ICR mice [4]; 64 mg/kg IP): 0 | Number of Writhings, Individual (ICR mice [4]; 64 mg/kg IP): 0 | % Inhibition (ICR mice [4]; 64 mg/kg IP): 100% | Number of Writhings, Average (ICR mice [4]; 128 mg/kg IP): 0 | Number of Writhings, Individual (ICR mice [4]; 128 mg/kg IP): 0 | % Inhibition (ICR mice [4]; 128 mg/kg IP): 100% | analgesic activity in writhing model (in words) (ICR mice [4]; at all dose levels from 128 down to 2 mg/kg IP): significant activity
